Source: patent publication US20160347813A1, “GLUCAGON ANALOGUES” (Zealand Pharma A/S, priority 2011, published 2016)
Residues, ends and D or L forms follow the SMILES beside them.

Target: T1, human GLP-1-R (Homo sapiens, UniProt P43220)
T1 construct: The DNA encoding the Glucagon-R or the GLP-1-R was amplified by PCR using primers encoding terminal restriction sites for subcloning; expressed in transfected cells
Assay: GLP-1 receptor efficacy assay (cAMP generation in HEK293 cells)
Format: cell-based
Settings: cAMP generation in HEK293 cells expressing GLP-1 receptor
Text: The DNA encoding the Glucagon-R or the GLP-1-R was amplified by PCR using primers encoding terminal restriction sites for subcloning. The 5′-end primers additionally encoded a near Kozak consensus sequence to ensure efficient translation. The fidelity of the DNA encoding the Glucagon-R and the GLP-1-R was confirmed by DNA sequencing. The PCR products encoding the Glucagon-R or the GLP-1-R were subcloned into a mammalian expression vector containing a neomycin (G418) resistance marker. The mammalian expression vectors encoding the Glucagon-R or the GLP-1-R were transfected into HEK293 cells by a standard calcium phosphate transfection method. 48 hr after transfection cells were seeded for limited dilution cloning and selected with 1 mg/ml G418 in the culture medium. Three weeks later 12 surviving colonies of Glucagon-R and GLP-1-R expressing cells were picked, propagated and tested in the Glucagon-R and GLP-1-R efficacy assays as described below. One Glucagon-R expressing clone and one GLP-1-R expressing clone were chosen for compound profiling.
On the day of analysis, growth medium was removed and the cells washed once with 200 μl Tyrode buffer. Cells were incubated in 100 μl Tyrode buffer containing increasing concentrations of test peptides, 100 μM IBMX, and 6 mM glucose for up 15 min at 37° C. The reaction was stopped by addition of 25 μl 0.5 M HCl and incubated on ice for 60 min. The cAMP content was estimated using the FlashPlate® cAMP kit from Perkin-Elmer according to manufacturer instructions. EC50 and relative efficacies compared to reference compounds (glucagon and GLP-1) were estimated by computer aided curve fitting.

T1 sequence (P43220 24-463): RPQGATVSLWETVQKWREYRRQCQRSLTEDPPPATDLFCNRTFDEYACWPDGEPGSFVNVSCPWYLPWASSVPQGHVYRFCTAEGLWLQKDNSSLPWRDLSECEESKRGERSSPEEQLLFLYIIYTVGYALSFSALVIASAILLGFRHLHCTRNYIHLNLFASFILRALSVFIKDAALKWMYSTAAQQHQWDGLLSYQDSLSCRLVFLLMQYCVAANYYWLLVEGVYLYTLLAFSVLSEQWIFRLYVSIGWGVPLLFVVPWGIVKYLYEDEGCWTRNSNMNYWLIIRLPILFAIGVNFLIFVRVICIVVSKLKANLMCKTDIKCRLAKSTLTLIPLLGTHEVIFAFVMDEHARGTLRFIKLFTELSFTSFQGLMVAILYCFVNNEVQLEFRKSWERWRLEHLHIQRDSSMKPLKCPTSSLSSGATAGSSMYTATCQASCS

Compound	EC50 [nM]
CCCCCCCCCCCCCCCC(=O)N[C@@H](CCC(=O)NCCCC[C@H](NC(=O)[C@H](CC(=O)O)NC(=O)[C@H](CC(C)C)NC(=O)[C@H](Cc1ccc(O)cc1)NC(=O)[C@H](CCCCN)NC(=O)[C@H](CO)NC(=O)[C@H](Cc1ccc(O)cc1)NC(=O)[C@H](CC(=O)O)NC(=O)[C@H](CO)NC(=O)[C@@H](NC(=O)[C@H](Cc1ccccc1)NC(=O)[C@@H](NC(=O)CNC(=O)[C@H](CCC(N)=O)NC(=O)C(C)(C)NC(=O)[C@@H](N)Cc1c[nH]cn1)[C@@H](C)O)[C@@H](C)O)C(=O)N[C@@H](CCCNC(=N)N)C(=O)N[C@@H](CCCNC(=N)N)C(=O)N[C@@H](C)C(=O)N[C@@H](CCCCN)C(=O)N[C@@H](CC(=O)O)C(=O)N[C@@H](Cc1ccccc1)C(=O)N[C@H](C(=O)N[C@@H](CCC(=O)O)C(=O)N[C@@H](Cc1c[nH]c2ccccc12)C(=O)N[C@@H](CC(C)C)C(=O)N[C@@H](CC(C)C)C(=O)N[C@@H](CO)C(=O)N[C@@H](C)C(N)=O)[C@@H](C)CC)C(=O)O [Compound 1] (HELM PEPTIDE1{H.[Aib].Q.G.T.F.T.S.D.Y.S.K.Y.L.D.K.R.R.A.K.D.F.I.E.W.L.L.S.A.[am]}|PEPTIDE2{[CCCCCCCCCCCCCCCC(=O)[*:2]].[gGlu]}$PEPTIDE1,PEPTIDE2,16:R3-2:R2$$$V2.0)	0.12
CCCCCCCCCCCCCCCC(=O)N[C@@H](CCC(=O)NCCCC[C@H](NC(=O)[C@H](CCC(=O)O)NC(=O)[C@H](CC(=O)O)NC(=O)[C@H](CC(C)C)NC(=O)[C@H](Cc1ccc(O)cc1)NC(=O)[C@H](CCCNC(=N)N)NC(=O)[C@H](CO)NC(=O)[C@H](Cc1ccc(O)cc1)NC(=O)[C@H](CC(=O)O)NC(=O)[C@H](CO)NC(=O)[C@@H](NC(=O)[C@H](Cc1ccccc1)NC(=O)[C@@H](NC(=O)CNC(=O)[C@H](Cc1c[nH]cn1)NC(=O)C(C)(C)NC(=O)[C@@H](N)Cc1c[nH]cn1)[C@@H](C)O)[C@@H](C)O)C(=O)N[C@@H](CCCNC(=N)N)C(=O)N[C@@H](C)C(=O)N[C@@H](CCCNC(=N)N)C(=O)N[C@@H](CC(=O)O)C(=O)N[C@@H](Cc1ccccc1)C(=O)N[C@H](C(=O)N[C@@H](CCC(=O)O)C(=O)N[C@@H](Cc1c[nH]c2ccccc12)C(=O)N[C@@H](CC(C)C)C(=O)N[C@@H](CC(C)C)C(=O)N[C@@H](CO)C(=O)N[C@@H](C)C(N)=O)[C@@H](C)CC)C(=O)O [Compound 12] (HELM PEPTIDE1{H.[Aib].H.G.T.F.T.S.D.Y.S.R.Y.L.D.E.K.R.A.R.D.F.I.E.W.L.L.S.A.[am]}|PEPTIDE2{[CCCCCCCCCCCCCCCC(=O)[*:2]].[gGlu]}$PEPTIDE1,PEPTIDE2,17:R3-2:R2$$$V2.0)	0.06
CCCCCCCCCCCCCCCC(=O)N[C@@H](CCC(=O)NCCCC[C@H](NC(=O)[C@H](CCC(=O)O)NC(=O)[C@H](CC(=O)O)NC(=O)[C@H](CC(C)C)NC(=O)[C@H](Cc1ccc(O)cc1)NC(=O)[C@H](CCCNC(=N)N)NC(=O)[C@H](CO)NC(=O)[C@H](Cc1ccc(O)cc1)NC(=O)[C@H](CC(=O)O)NC(=O)[C@H](CO)NC(=O)[C@@H](NC(=O)[C@H](Cc1ccccc1)NC(=O)[C@@H](NC(=O)CNC(=O)[C@@H]1CCCN1C(=O)[C@@H](CO)NC(=O)[C@@H](N)Cc1c[nH]cn1)[C@@H](C)O)[C@@H](C)O)C(=O)N[C@@H](CCCNC(=N)N)C(=O)N[C@@H](C)C(=O)N[C@@H](CCCNC(=N)N)C(=O)N[C@@H](CC(=O)O)C(=O)N[C@@H](Cc1ccccc1)C(=O)N[C@H](C(=O)N[C@@H](CCC(=O)O)C(=O)N[C@@H](Cc1c[nH]c2ccccc12)C(=O)N[C@@H](CC(C)C)C(=O)N[C@@H](CC(C)C)C(=O)N[C@@H](CO)C(=O)N[C@@H](C)C(N)=O)[C@@H](C)CC)C(=O)O [Compound 14] (HELM PEPTIDE1{H.[dS].P.G.T.F.T.S.D.Y.S.R.Y.L.D.E.K.R.A.R.D.F.I.E.W.L.L.S.A.[am]}|PEPTIDE2{[CCCCCCCCCCCCCCCC(=O)[*:2]].[gGlu]}$PEPTIDE1,PEPTIDE2,17:R3-2:R2$$$V2.0)	0.12
CCCCCCCCCCCCCCCC(=O)N[C@@H](CCC(=O)NCCCC[C@H](NC(=O)[C@H](CCC(=O)O)NC(=O)[C@H](CC(=O)O)NC(=O)[C@H](CC(C)C)NC(=O)[C@H](Cc1ccc(O)cc1)NC(=O)[C@H](CCCNC(=N)N)NC(=O)[C@H](CO)NC(=O)[C@H](Cc1ccc(O)cc1)NC(=O)[C@H](CC(=O)O)NC(=O)[C@H](CO)NC(=O)[C@@H](NC(=O)[C@H](Cc1ccccc1)NC(=O)[C@@H](NC(=O)CNC(=O)[C@@H]1CCCN1C(=O)C(C)(C)NC(=O)[C@@H](N)Cc1c[nH]cn1)[C@@H](C)O)[C@@H](C)O)C(=O)N[C@@H](CCCNC(=N)N)C(=O)N[C@@H](C)C(=O)N[C@@H](CCCNC(=N)N)C(=O)N[C@@H](CC(=O)O)C(=O)N[C@@H](Cc1ccccc1)C(=O)N[C@H](C(=O)N[C@@H](CCC(=O)O)C(=O)N[C@@H](Cc1c[nH]c2ccccc12)C(=O)N[C@@H](CC(C)C)C(=O)N[C@@H](CC(C)C)C(=O)N[C@@H](CO)C(=O)N[C@@H](C)C(N)=O)[C@@H](C)CC)C(=O)O [Compound 15] (HELM PEPTIDE1{H.[Aib].P.G.T.F.T.S.D.Y.S.R.Y.L.D.E.K.R.A.R.D.F.I.E.W.L.L.S.A.[am]}|PEPTIDE2{[CCCCCCCCCCCCCCCC(=O)[*:2]].[gGlu]}$PEPTIDE1,PEPTIDE2,17:R3-2:R2$$$V2.0)	0.06
CCCCCCCCCCCCCCCC(=O)N[C@@H](CCC(=O)NCCCC[C@H](NC(=O)[C@H](CCC(=O)O)NC(=O)[C@H](CC(=O)O)NC(=O)[C@H](CC(C)C)NC(=O)[C@H](Cc1ccc(O)cc1)NC(=O)[C@H](CCCNC(=N)N)NC(=O)[C@H](CO)NC(=O)[C@H](Cc1ccc(O)cc1)NC(=O)[C@H](CC(=O)O)NC(=O)[C@H](CO)NC(=O)[C@@H](NC(=O)[C@H](Cc1ccccc1)NC(=O)[C@@H](NC(=O)CNC(=O)[C@H](CCC(N)=O)NC(=O)C(C)(C)NC(=O)[C@@H](N)Cc1c[nH]cn1)[C@@H](C)O)[C@@H](C)O)C(=O)N[C@@H](CCCNC(=N)N)C(=O)N[C@@H](C)C(=O)N[C@@H](CCCCN)C(=O)N[C@@H](CC(=O)O)C(=O)N[C@@H](Cc1ccccc1)C(=O)N[C@H](C(=O)N[C@@H](CCC(=O)O)C(=O)N[C@@H](Cc1c[nH]c2ccccc12)C(=O)N[C@@H](CC(C)C)C(=O)N[C@@H](CC(C)C)C(=O)N[C@@H](CO)C(=O)N[C@@H](C)C(N)=O)[C@@H](C)CC)C(=O)O [Compound 16] (HELM PEPTIDE1{H.[Aib].Q.G.T.F.T.S.D.Y.S.R.Y.L.D.E.K.R.A.K.D.F.I.E.W.L.L.S.A.[am]}|PEPTIDE2{[CCCCCCCCCCCCCCCC(=O)[*:2]].[gGlu]}$PEPTIDE1,PEPTIDE2,17:R3-2:R2$$$V2.0)	0.06
